In paper PMC12378631, “Novel macrocyclic peptidomimetics targeting the insulin-regulated aminopeptidase (IRAP): design, synthesis and evaluation” (RSC Medicinal Chemistry, 2025):

Tests used:
[1] = system: dendritic spine density in the hippocampus; design: method as in PMID 26769413; settings: cited from earlier work
[2] = cited from earlier work
[3] = target: insulin-regulated aminopeptidase (IRAP) (Homo sapiens, UniProt Q9UIQ6); settings: for IC50 higher than compound 37: compared with compound 37
[4] = system: rodent models of cognitive impairment; design: method as in PMID 10234025, PMID 11707427, PMID 3252173, PMID 14980384; settings: cited from earlier work

Sequence of insulin-regulated aminopeptidase (IRAP) (Q9UIQ6 whole entry): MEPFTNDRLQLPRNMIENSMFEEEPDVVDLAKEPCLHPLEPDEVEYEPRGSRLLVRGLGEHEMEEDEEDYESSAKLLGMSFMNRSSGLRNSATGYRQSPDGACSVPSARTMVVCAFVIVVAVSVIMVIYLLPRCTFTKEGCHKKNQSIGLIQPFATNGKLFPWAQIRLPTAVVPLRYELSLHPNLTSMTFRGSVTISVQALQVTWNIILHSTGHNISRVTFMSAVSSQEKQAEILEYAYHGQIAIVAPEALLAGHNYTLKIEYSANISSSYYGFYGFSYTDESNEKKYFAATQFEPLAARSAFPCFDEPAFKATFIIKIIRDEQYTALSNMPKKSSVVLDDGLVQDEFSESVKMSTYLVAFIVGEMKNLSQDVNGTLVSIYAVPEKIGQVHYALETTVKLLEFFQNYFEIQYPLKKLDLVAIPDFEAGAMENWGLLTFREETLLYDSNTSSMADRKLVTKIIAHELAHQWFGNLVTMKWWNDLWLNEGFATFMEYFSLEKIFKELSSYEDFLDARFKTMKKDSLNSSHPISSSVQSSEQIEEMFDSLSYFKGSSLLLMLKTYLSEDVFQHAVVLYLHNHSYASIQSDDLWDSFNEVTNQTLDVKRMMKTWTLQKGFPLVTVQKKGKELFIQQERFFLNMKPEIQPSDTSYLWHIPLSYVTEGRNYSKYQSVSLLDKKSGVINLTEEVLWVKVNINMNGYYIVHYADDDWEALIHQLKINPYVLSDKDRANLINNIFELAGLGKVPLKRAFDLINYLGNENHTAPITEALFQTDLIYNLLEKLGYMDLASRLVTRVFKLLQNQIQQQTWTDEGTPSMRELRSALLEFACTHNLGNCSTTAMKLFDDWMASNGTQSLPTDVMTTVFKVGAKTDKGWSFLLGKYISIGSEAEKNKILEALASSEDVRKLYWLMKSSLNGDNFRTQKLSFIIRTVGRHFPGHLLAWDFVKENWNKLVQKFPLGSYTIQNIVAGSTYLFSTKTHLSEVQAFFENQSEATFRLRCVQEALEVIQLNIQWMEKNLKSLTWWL

IC50 [3] [µM] | IC50 higher than compound 37 [3] [fold] | Molecule | dendritic spine density in the hippocampus [1] | susceptibility to proteolytic degradation in vivo [2] | performance in rodent models of cognitive impairment [4]
 |  | N[C@H]1CCSSC[C@@H](C(=O)NCc2ccccc2CC(=O)O)NC(=O)C[C@H](Cc2ccc(O)cc2)NC1=O [HA08] | increase dendritic spine density in the hippocampus | susceptible to proteolytic degradation in vivo | 
0.906 | 14 | N[C@H]1CCSSC[C@@H](C(=O)NCc2cccc(C(=O)O)c2)NC(=O)C[C@H](Cc2ccc(O)cc2)NC1=O [Compound 38] |  |  | 
2.95 | 46 | N[C@H]1CCSSC[C@@H](C(=O)NCc2ccc(C(=O)O)cc2)NC(=O)C[C@H](Cc2ccc(O)cc2)NC1=O [Compound 39] |  |  | 
 |  | Val–Tyr–Ile–His–Pro–Phe [Ang IV] |  |  | improves performance in rodent models of cognitive impairment
